# Measured values published in ChEMBL document CHEMBL5634076, “Optimization of pyridylpiperazine-based inhibitors of the Escherichia coli AcrAB-TolC efflux pump” (Eur J Med Chem, 2023).
# What was measured:
# [1] = biological target: T1, Multidrug efflux pump subunit AcrB (Escherichia coli (strain K12)) (UniProt P31224); experiment: Inhibition of AcrB in Escherichia coli BW25113 assessed as potentiation of pyridomycin-induced antibacterial activity incubated for 20 hrs by resazurin microtitre assay
# T1 sequence (whole entry): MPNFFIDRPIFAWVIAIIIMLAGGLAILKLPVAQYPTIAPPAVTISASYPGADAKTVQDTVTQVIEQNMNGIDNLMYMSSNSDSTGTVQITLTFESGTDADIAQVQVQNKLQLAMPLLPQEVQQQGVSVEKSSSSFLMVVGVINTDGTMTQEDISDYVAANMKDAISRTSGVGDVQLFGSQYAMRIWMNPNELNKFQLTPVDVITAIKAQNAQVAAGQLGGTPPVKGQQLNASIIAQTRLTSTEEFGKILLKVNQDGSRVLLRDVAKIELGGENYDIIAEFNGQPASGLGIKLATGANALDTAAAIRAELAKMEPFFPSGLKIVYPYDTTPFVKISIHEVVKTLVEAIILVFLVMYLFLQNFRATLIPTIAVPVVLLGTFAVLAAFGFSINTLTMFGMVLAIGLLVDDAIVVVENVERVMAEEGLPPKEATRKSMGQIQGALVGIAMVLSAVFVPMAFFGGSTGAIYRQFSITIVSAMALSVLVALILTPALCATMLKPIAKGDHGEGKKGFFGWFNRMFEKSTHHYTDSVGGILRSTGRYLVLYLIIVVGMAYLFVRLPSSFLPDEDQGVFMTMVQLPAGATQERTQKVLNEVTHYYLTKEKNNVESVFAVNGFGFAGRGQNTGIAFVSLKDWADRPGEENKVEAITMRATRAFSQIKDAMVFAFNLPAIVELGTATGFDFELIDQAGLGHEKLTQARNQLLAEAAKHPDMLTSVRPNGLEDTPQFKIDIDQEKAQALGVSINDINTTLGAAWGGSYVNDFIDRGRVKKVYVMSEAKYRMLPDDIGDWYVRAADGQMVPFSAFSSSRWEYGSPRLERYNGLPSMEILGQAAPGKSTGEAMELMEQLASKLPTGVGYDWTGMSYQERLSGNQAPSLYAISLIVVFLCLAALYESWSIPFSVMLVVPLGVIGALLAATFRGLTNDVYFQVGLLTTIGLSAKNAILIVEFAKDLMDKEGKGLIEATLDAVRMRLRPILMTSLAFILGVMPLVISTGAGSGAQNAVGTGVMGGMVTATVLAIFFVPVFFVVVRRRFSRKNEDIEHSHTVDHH
# Escherichia coli [2] = experiment: Antibacterial activity against Escherichia coli BW25113 assessed as reduction in bacterial growth incubated for 20 hrs by resazurin microtitre assay; assay type: functional
# [3] = biological target: T1, Multidrug efflux pump subunit AcrB (Escherichia coli (strain K12)); experiment: Potency index, ratio of BDM73185 EC90 to test compound EC90 for inhibition of AcrAB-TolC in Escherichia coli BW25113
# Escherichia coli [4] = experiment: Selectivity ratio of EC90 for inhibition of AcrB Glu947Gln mutant in Escherichia coli BW25113 to inhibition of AcrB in Escherichia coli BW25113 incubated for 20 hrs by resazurin microtitre assay
# Escherichia coli [5] = experiment: Selectivity ratio of EC90 for inhibition of AcrB Asp951Asn mutant in Escherichia coli BW25113 to inhibition of AcrB in Escherichia coli BW25113 incubated for 20 hrs by resazurin microtitre assay
# Escherichia coli [6] = experiment: Inhibition of AcrB Asp951Asn mutant in Escherichia coli BW25113 assessed as potentiation of pyridomycin-induced antibacterial activity incubated for 20 hrs by resazurin microtitre assay
# Escherichia coli [7] = experiment: Inhibition of AcrB Glu947Gln mutant in Escherichia coli BW25113 assessed as potentiation of pyridomycin-induced antibacterial activity incubated for 20 hrs by resazurin microtitre assay
# [8] = Stability in mouse plasma assessed as half life at 10 uM measured up to 360 mins by LC-MS/MS analysis; assay type: ADME, cell-free
# [9] = Solubility of compound in PBS at pH 7.4 incubated for 24 hrs by LC-MS/MS analysis; assay type: physicochemical
# [10] = Stability in CD-1 mouse liver microsomes assessed as half life at 1 uM measured up to 40 mins by LC-MS/MS analysis; assay type: ADME, Microsome
# [11] = biological target: T1, Multidrug efflux pump subunit AcrB (Escherichia coli (strain K12)); experiment: Inhibition of AcrB in Escherichia coli BW25113 assessed as potentiation of pyridomycin-induced antibacterial activity incubated for 5 hrs by resazurin reduction assay
# [12] = Stability in CD-1 mouse liver microsomes assessed as intrinsic clearance at 1 uM measured up to 40 mins by LC-MS/MS analysis; assay type: ADME, Microsome; conditions: read-out: CLH
# Escherichia coli [13] = experiment: Antibacterial activity against Escherichia coli BW25113 assessed as reduction in bacterial growth incubated up to 18 hrs by resazurin microtitre assay; assay type: functional
EC90 [1],MIC (Escherichia coli [2]),Compound,other results
500 µM,> 250 µM,NC1CCN(c2ncc(C(F)(F)F)cc2Cl)CC1,–
20 µM,> 250 µM,COC(=O)c1cnc(N2CCNCC2)c(Cl)c1,Ratio [3]: 3
–,> 250 µM,CC(C)(C)OC(=O)N1CCN(c2ncc(/C(N)=N/O)cc2Cl)CC1,–
156 µM,> 250 µM,NCc1cccc(NC(=O)c2cnc(N3CCNCC3)c(Cl)c2)c1,–
–,> 250 µM,O=C(O)c1cnc(N2CCNCC2)c(Cl)c1,–
–,> 250 µM,O=C(CBr)c1cnc(N2CCN(C(=O)OCC(Cl)(Cl)Cl)CC2)c(Cl)c1,–
> 500 µM,> 250 µM,NCCNc1ncc(C(F)(F)F)cc1Cl,–
> 250 µM,> 250 µM,Cc1nc(-c2cnc(N3CCNCC3)c(Cl)c2)co1,–
–,–,Cc1onc(-c2ccccc2)c1C(=O)N[C@@H]1C(=O)N2[C@@H]1SC(C)(C)[C@@H]2C(=O)O [OXACILLIN],MIC95 (Escherichia coli [2]): > 128 µg/mL
187 µM,> 250 µM,NCCc1ccc(NC(=O)c2cnc(N3CCNCC3)c(Cl)c2)cc1,–
> 500 µM,> 250 µM,O=C1CN(c2ncc(C(F)(F)F)cc2Cl)CCN1,–
78 µM,> 250 µM,Cc1nc(-c2cnc(N3CCNCC3)c(Cl)c2)no1,–
47 µM,> 250 µM,NCCc1ccc(C(=O)Nc2cnc(N3CCNCC3)c(Cl)c2)cc1,–
> 500 µM,> 250 µM,FC(F)(F)c1cnc(N2CCCNCC2)c(Cl)c1,–
23 µM,> 250 µM,O=C(Oc1ccccc1)c1cnc(N2CCNCC2)c(Cl)c1,–
62 µM,> 250 µM,O=C(OCCc1ccccc1)c1cnc(N2CCNCC2)c(Cl)c1,–

EC90 [1],MIC (Escherichia coli [2]),Compound,other results
–,–,CO[C@@H]1[C@@H](OC(N)=O)[C@@H](O)[C@H](Oc2ccc3c(O)c(NC(=O)c4ccc(O)c(CC=C(C)C)c4)c(=O)oc3c2C)OC1(C)C [NOVOBIOCIN],MIC95 (Escherichia coli [2]): 80 µg/mL
–,–,O=C(O)c1cn(C2CC2)c2cc(N3CCNCC3)c(F)cc2c1=O [CIPROFLOXACIN],MIC95 (Escherichia coli [2]): 0.01 µg/mL
250 µM,250 µM,O=C(OCCCc1ccccc1)c1cnc(N2CCNCC2)c(Cl)c1,–
–,–,O=C(N[C@H](CO)[C@H](O)c1ccc([N+](=O)[O-])cc1)C(Cl)Cl [CHLORAMPHENICOL],MIC95 (Escherichia coli [2]): 8 µg/mL
156 µM,> 250 µM,O=C(OCc1ccccc1)c1cnc(N2CCNCC2)c(Cl)c1,–
> 250 µM,> 250 µM,CNC(=O)c1cnc(N2CCNCC2)c(Cl)c1,–
–,–,CC[C@H]1OC(=O)[C@H](C)[C@@H](O[C@H]2C[C@@](C)(OC)[C@@H](O)[C@H](C)O2)[C@H](C)[C@@H](O[C@@H]2O[C@H](C)C[C@H](N(C)C)[C@H]2O)[C@](C)(O)C[C@@H](C)C(=O)[C@H](C)[C@@H](O)[C@]1(C)O [ERYTHROMYCIN],MIC95 (Escherichia coli [13]): 128 µg/mL
187 µM,> 250 µM,Cc1nc(-c2cnc(N3CCNCC3)c(Cl)c2)cs1,–
–,–,CC(=O)NC[C@H]1CN(c2ccc(N3CCOCC3)c(F)c2)C(=O)O1 [LINEZOLID],MIC95 (Escherichia coli [2]): > 128 µg/mL
12 µM,> 250 µM,CCOC(=O)c1cnc(N2CCNCC2)c(Cl)c1,Ratio [3]: 3
> 250 µM,> 250 µM,NCCOC(=O)c1cnc(N2CCNCC2)c(Cl)c1,–
–,> 250 µM,CC(C)(C)OC(=O)N1CCN(c2ncc(N)cc2Cl)CC1,–
–,–,CC(=O)O[C@H]1C[C@@]2(C)[C@@H](C[C@@H](O)[C@H]3[C@@]4(C)CC[C@@H](O)[C@@H](C)[C@@H]4CC[C@@]32C)/C1=C(\CCC=C(C)C)C(=O)O [FUSIDIC ACID],MIC95 (Escherichia coli [2]): > 128 µg/mL
187 µM,> 250 µM,Cc1nnc(-c2cnc(N3CCNCC3)c(Cl)c2)o1,–
–,–,CCN1CCN(C(=O)N[C@@H](C(=O)N[C@@H]2C(=O)N3[C@@H]2SC(C)(C)[C@@H]3C(=O)O)c2ccccc2)C(=O)C1=O [PIPERACILLIN],MIC95 (Escherichia coli [13]): 4 µg/mL

Compound,EC90 [1],MIC (Escherichia coli [2]),other results
OCc1cnc(N2CCNCC2)c(Cl)c1,> 250 µM,> 250 µM,–
FC(F)(F)c1cnc(N2CCNCC2)c(Br)c1,16 µM,> 250 µM,–
NCc1cccc(COc2cnc(N3CCNCC3)c(Cl)c2)c1,10 µM,> 250 µM,Ratio (Escherichia coli [4]): > 25; Ratio (Escherichia coli [5]): 25; EC90 (Escherichia coli [6]): 250 µM; EC90 (Escherichia coli [7]): > 250 µM
NCc1cccc(OCc2cnc(N3CCNCC3)c(Cl)c2)c1,23 µM,> 250 µM,Ratio (Escherichia coli [4]): > 11; Ratio (Escherichia coli [5]): > 11; EC90 (Escherichia coli [6]): > 250 µM; EC90 (Escherichia coli [7]): > 250 µM
CC(=O)Nc1cnc(N2CCNCC2)c(Cl)c1,187 µM,> 250 µM,–
FC(F)(F)c1cnc(C2=CCNCC2)c(Cl)c1,> 250 µM,> 250 µM,–
Clc1cc(I)cnc1N1CCNCC1,–,> 250 µM,half-life at 10 µM [8]: > 360 min; solubility at 24 h [9]: > 200 µM; half-life at 1 µM [10]: 9 min; EC90 [11]: 12 µM; microsomal CLint at 1 µM [12]: 241 µL/min/mg
OCc1cc(C(F)(F)F)cnc1N1CCNCC1,> 500 µM,> 250 µM,–
NCc1nc(-c2cnc(N3CCNCC3)c(Cl)c2)no1,81 µM,> 250 µM,Ratio (Escherichia coli [4]): 3; Ratio (Escherichia coli [5]): 3; EC90 (Escherichia coli [6]): 250 µM; EC90 (Escherichia coli [7]): 250 µM
O=C(Oc1cccc(CO)c1)c1cnc(N2CCNCC2)c(Cl)c1,26 µM,> 250 µM,Ratio (Escherichia coli [4]): 2.4; Ratio (Escherichia coli [5]): 2.4; EC90 (Escherichia coli [6]): 62 µM; EC90 (Escherichia coli [7]): 62 µM
NCCCc1nc(-c2cnc(N3CCNCC3)c(Cl)c2)no1,21 µM,> 250 µM,Ratio (Escherichia coli [4]): > 12; Ratio (Escherichia coli [5]): > 12; EC90 (Escherichia coli [6]): > 250 µM; EC90 (Escherichia coli [7]): > 250 µM
C[C@@H]1CN(c2ncc(C(F)(F)F)cc2Cl)C[C@H](C)N1,> 500 µM,> 250 µM,–
NCCc1ccc(OC(=O)c2cnc(N3CCNCC3)c(Cl)c2)cc1,3 µM,> 250 µM,Ratio (Escherichia coli [4]): 3; Ratio (Escherichia coli [5]): 8; EC90 (Escherichia coli [6]): 23 µM; EC90 (Escherichia coli [7]): 8 µM
FC(F)(F)c1ccc(N2CCNCC2)nc1,> 500 µM,> 250 µM,–
FC(F)(F)c1cc(I)cnc1N1CCNCC1,94 µM,> 250 µM,–
C[C@H]1CNCCN1c1ncc(C(F)(F)F)cc1Cl,> 500 µM,> 250 µM,–
CS(=O)(=O)Nc1cnc(N2CCNCC2)c(Cl)c1,> 250 µM,> 250 µM,–
C[C@@H]1CNCCN1c1ncc(C(F)(F)F)cc1Cl,> 500 µM,> 250 µM,–
